Reference: patent publication US20240174618A1, “SUBSTITUTED (2-HETEROARYLOXYPHENYL)SULFONATES, SALTS THEREOF AND THEIR USE AS HERBICIDAL AGENTS” (Bayer Aktiengesellschaft, priority 2021, published 2024)

How the values were obtained:
Type in all cases: in vivo
Zea mays (ZEAMX) = test: F. Post-emergence effect on useful plants, ZEAMX; conditions: useful plant
Description: (§1) Seeds of monocotyledonous and dicotyledonous weeds and crop plants were placed in sandy loam in plastic or organic planting pots, covered with soil and cultivated in a greenhouse under controlled growth conditions. 2 to 3 weeks after sowing, the test plants were treated at the one-leaf stage. The compounds of the invention, formulated in the form of wettable powders (WP) or as emulsion concentrates (EC), were then sprayed onto the green parts of the plants as aqueous suspension or emulsion with addition of 0.5% additive at a water application rate of 600 l/ha (converted). After the test plants had been kept in the greenhouse under optimum growth conditions for about 3 weeks, the activity of the preparations was rated visually in comparison to untreated controls.
(§2) For example, • 100% efficacy=plants have died, • 0% action=like untreated control plants.
Tables F1a to F4 below show the effects of selected compounds of the general formula (I) according to table 1 on various useful plants at an application rate corresponding to 320 g/ha or less, which were obtained by the experimental procedure mentioned above.

Avena fatua (AVEFA) = test: C. Herbicidal pre-emergence efficacy, AVEFA; conditions: 320 g/ha, scored after about 3 weeks
Text: (§3) Seeds of monocotyledonous and dicotyledonous weed plants and crop plants were placed in plastic or organic planting pots and covered with soil. The compounds of the invention, formulated in the form of wettable powders (WP) or as emulsion concentrates (EC), were then applied to the surface of the covering soil as aqueous suspension or emulsion with addition of 0.5% additive at a water application rate equivalent to 600 l/ha (converted). After the treatment, the pots were placed in a greenhouse and kept under good growth conditions for the test plants. After about 3 weeks, the efficacy of the preparations was scored visually in comparison with untreated controls as percentages. For example, • 100% efficacy=plants have died, • 0% efficacy=like untreated control plants.
Tables C1a to C14b below show the effects of selected compounds of the general formula (I) according to table 1 on various harmful plants at an application rate corresponding to 320 g/ha or less, which were obtained by the experimental procedure mentioned above.

Lolium rigidum (LOLRI) = test: E. Herbicidal post-emergence efficacy, LOLRI
Description: as §1, §2
Tables E1a to E12b below show the effects of selected compounds of the general formula (I) according to table 1 on various harmful plants at an application rate corresponding to 320 g/ha or less, which were obtained by the experimental procedure mentioned above.

[1] = test system: Matricaria inodora (MATIN); test: B. Herbicidal post-emergence efficacy, MATIN
Description: Seeds of mono- and dicotyledonous weed plants were placed in plastic pots in sandy loam soil (doubly sown with in each case one species of mono- or dicotyledonous weed plants per pot), covered with soil and cultivated in a greenhouse under controlled growth conditions. 2 to 3 weeks after sowing, the test plants were treated at the one-leaf stage. The compounds of the invention, formulated in the form of wettable powders (WP) or as emulsion concentrates (EC), were applied onto the green parts of the plants as aqueous suspension or emulsion with addition of 0.5% additive at a water application rate of 600 liters per hectare (converted). After the test plants had been kept in the greenhouse under optimum growth conditions for about 3 weeks, the activity of the preparations was rated visually in comparison to untreated controls.
For example, • 100% efficacy=plants have died, • 0% efficacy=like untreated control plants
Tables B1a to B12c below show the effects of selected inventive compounds of the general formula (I) according to table 1 on various harmful plants at an application rate corresponding to 1280 g/ha or less, which were obtained by the experimental procedure mentioned above.

Glycine max (GLXMA) = test: D. Pre-emergence effect on useful plants, GLXMA; conditions: useful plant, application rate 80 g/ha
Text: as §3
Tables D1a to D5b below show the effects of selected compounds of the general formula (I) according to table 1 on various useful plants at an application rate corresponding to 320 g/ha or less, which were obtained by the experimental procedure mentioned above.

Row | Post-emergence efficacy against ZEAMX in % (Zea mays (ZEAMX); application rate 80 g/ha) | SMILES | Pre-emergence efficacy against AVEFA (Avena fatua (AVEFA)) | Post-emergence efficacy against LOLRI in % (Lolium rigidum (LOLRI); application rate 320 g/ha) | further results
1 | 0% | O=S(=O)(CCC(F)(F)F)Oc1c(Br)cccc1Oc1ncc(F)cn1 [Example I-43] |  |  | Post-emergence efficacy against ZEAMX in % (Zea mays (ZEAMX); application rate 320 g/ha): 0%
2 | 0% | O=S(=O)(CCC(F)(F)F)Oc1c(F)cccc1Oc1ncc(Cl)cn1 [Example I-48] | 100% | 90% | 
3 | 0% | COCCS(=O)(=O)Oc1c(F)cccc1Oc1ncc(Cl)cn1 [Example I-52] |  |  | Post-emergence efficacy against ZEAMX in % (Zea mays (ZEAMX); application rate 320 g/ha): 0%
4 | 20% | O=S(=O)(CCCC(F)F)Oc1c(F)cccc1Oc1ncc(Cl)cn1 [Example I-56] | 80% |  | Post-emergence efficacy against MATIN ([1]; 320 g/ha): 90%; Post-emergence efficacy against MATIN ([1]; 1280 g/ha): 90%
5 | 20% | O=S(=O)(CCC(F)=C(F)F)Oc1c(F)cccc1Oc1ncc(Cl)cn1 [Example I-70] |  |  | 

The next lines start with the compound.

Row | SMILES | Post-emergence efficacy against ZEAMX in % (Zea mays (ZEAMX); application rate 80 g/ha) | Pre-emergence efficacy against AVEFA (Avena fatua (AVEFA)) | Post-emergence efficacy against LOLRI in % (Lolium rigidum (LOLRI); application rate 320 g/ha) | further results
6 | O=S(=O)(CCCC(F)(F)F)Oc1c(Cl)cccc1Oc1ncc(Cl)cn1 [Example I-39] | 20% |  |  | 
7 | O=S(=O)(CCC(F)(F)F)Oc1c(F)cccc1Oc1ncc(Br)cn1 [Example I-40] |  | 100% |  | 
8 | O=S(=O)(CCCC(F)(F)F)Oc1c(F)cccc1Oc1ncc(Br)cn1 [Example I-41] | 0% |  |  | Post-emergence efficacy against ZEAMX in % (Zea mays (ZEAMX); application rate 320 g/ha): 20%
9 | O=S(=O)(CCCC(F)(F)F)Oc1c(F)cccc1Oc1ncc(F)cn1 [Example I-42] |  | 100% | 100% | Post-emergence efficacy against LOLRI in % (Lolium rigidum (LOLRI); application rate 80 g/ha): 80%
10 | O=S(=O)(CCC(F)(F)F)Oc1c(F)cccc1Oc1ncc(F)cn1 [Example I-47] |  | 100% | 100% | 
11 | O=S(=O)(CCCC(F)(F)F)Oc1c(F)cccc1Oc1ncc(Cl)cn1 [Example I-49] |  |  | 80% | 
12 | C=CCCS(=O)(=O)Oc1c(F)cccc1Oc1ncc(Cl)cn1 [Example I-50] |  |  |  | Post-emergence efficacy against MATIN ([1]; 1280 g/ha): 90%
13 | O=S(=O)(CC1CC(F)(F)C1)Oc1c(F)cccc1Oc1ncc(Cl)cn1 [Example I-53] |  | 80% | 100% | Post-emergence efficacy against LOLRI in % (Lolium rigidum (LOLRI); application rate 80 g/ha): 80%
14 | O=S(=O)(CCC1CC1)Oc1c(F)cccc1Oc1ncc(Cl)cn1 [Example I-55] |  |  | 80% | Pre-emergence efficacy against GLXMA in % (Glycine max (GLXMA)): 10%
15 | O=S(=O)(CCCC(F)(F)C(F)(F)F)Oc1c(F)cccc1Oc1ncc(Cl)cn1 [Example I-68] |  |  |  | Pre-emergence efficacy against GLXMA in % (Glycine max (GLXMA)): 10%
16 | O=S(=O)(CCC(F)=C(F)F)Oc1c(Cl)cccc1Oc1ncc(Cl)cn1 [Example I-73] | 20% |  |  | 
17 | Cc1cccc(Oc2ncc(Cl)cn2)c1OS(=O)(=O)CC1CC(F)(F)C1 [Example I-74] | 0% |  |  | 
18 | N#Cc1cccc(Oc2ncc(Cl)cn2)c1OS(=O)(=O)CCCC(F)(F)F [Example I-81] |  |  | 80% | Pre-emergence efficacy against GLXMA in % (Glycine max (GLXMA)): 0%
